Results from patent publication EP4722219A1 (Gan & Lee Pharmaceuticals Co., Ltd., priority 2023, dated 2024).
Read-outs that look alike come from different tables or passages of the source.

Biological target: CRBN protein (Homo sapiens, UniProt Q96SW2)
Assay: Binding activity to E3 ubiquitin ligase CRBN (HTRF competitive binding kit, Thalidomide-Red)
Description: Binding activity of the E3 ligase inhibitor disclosed in the present invention to E3 ubiquitin ligase CRBN
CRBN binding activity test kit (CEREBLON BINDING KITS (PE, 64BD CRBN PEG).
The detection is based on homogeneous time-resolved fluorescence (HTRF) technology.
This kit uses a europium-labeled GST antibody (GST Eu Cryptate Antibody) as the donor and XL665-labeled thalidomide (Thalidomide-Red reagent) as the receptor. The donor binds to the GST-tagged CRBN protein.
The donor and receptor were each diluted 50-fold using the buffer provided in the kit (PROTAC binding buffer 1). The CRBN protein was diluted 45-fold. An 8mM solution of the compound disclosed herein was diluted 10-fold using the diluent provided in the kit (1X diluent), followed by 7 successive 5-fold serial dilutions of the resulting solution.
The ratio of the acceptor and donor emission signals was calculated for each individual well.
IC50 values was calculated based on compound concentration, Ratio, and coefficient of variation using GraphPad Prism.

[1] = competition with XL665-labeled thalidomide for GST-tagged CRBN protein, HTRF, 3 hours at room temperature, read-out: IC50
[2] = competition with XL665-labeled thalidomide for GST-tagged CRBN protein, HTRF, 3 hours at room temperature

| SMILES | IC50 [1] [µM] | further results |
| --- | --- | --- |
| COc1cc2c(cc1C(=O)N[C@H]1CCC(=O)NC1=O)C1(CCNCC1)CO2 [Compound A9, (S)-N-(2,6-dioxopiperidin-3-yl)-6-methoxy-2H-spiro[benzofuran-3,4'-piperidine]-5-carboxamide] | 29.1 | – |
| COc1c(C(=O)N[C@H]2CCC(=O)NC2=O)ccc2c1OCC21CCNCC1 [Compound A8, (S)-N-(2,6-dioxohesperidin-3-yl)-7-methoxy-2H-spiro[benzofuran-3,4'-piperidine]-6-carboxamide] | – | IC50 [2]: 24.6 µM |
| O=C1CC[C@H](NC(=O)c2ccc3c(c2)OC[C@@H]2CNCCN32)C(=O)N1 [Compound B1] | – | IC50: 40.3 µM |
| O=C1CC[C@H](NC(=O)c2cc3c(cc2F)CCC2(CCNCC2)O3)C(=O)N1 [Compound A6, (S)-N-(2,6-dioxopiperidin-3-yl)-6-fluorospiro[chroman-2,4'-piperidine]-7-carboxamide] | 35.3 | – |
| O=C1CCC(Nc2ccc3c(c2)OC2(CCNCC2)CC3)C(=O)N1 (stereo not shown) [Compound C4, 3-(Spiro[2,4'-piperidino]-7-ylamino)piperidine-2,6-dione] | – | IC50 [2]: 10.1 µM |
| O=C1CC[C@H](NC(=O)c2cc3c(cc2F)C2(CCNCC2)CO3)C(=O)N1 [Compound A4, (S)-N-(2,6-dioxopiperidin-3-yl)-5-fluoro-2H-spiro[benzofuran-3,4'-piperidine]-6-carboxamide] | 23.5 | – |
| O=C1CC[C@H](NC(=O)c2cc3c(cc2F)OCC32CCNCC2)C(=O)N1 [Compound A3, (S)-N-(2,6-dioxopiperidin-3-yl)-6-fluoro-2H-spiro[benzofuran-3,4'-piperidine]-5-carboxamide] | 52.8 | – |

The next lines start with results.

| IC50 [1] [µM] | SMILES | further results |
| --- | --- | --- |
| 60.2 | O=C1CC[C@H](NC(=O)c2ccc3c(c2)OC[C@H]2CNCCN32)C(=O)N1 [Compound B2] | – |
| 16.4 | O=C1CCC(Nc2ccc3c(c2)CC2(CCNCC2)O3)C(=O)N1 (stereo not shown) [Compound C8, 3-((3H-spiro[benzofuran-2,4'-piperidine]-5-yl)amino)piperidine-2,6-dione] | – |
| 0.028 | Cn1c(=O)n(C2CCC(=O)NC2=O)c2ccc3c(c21)OCC31CCNCC1 (stereo not shown) [Compound D2, 3-(1-Methyl-2-oxo-1,2-dihydro-3H,7H-spiro[benzofuro[6,7-d]imidazole-6,4'-piperidine]-3-yl)piperidine-2,6-dione] | – |
| 27 | O=C1CC[C@H](NC(=O)c2cc3c(cc2F)N2CCNC[C@H]2CO3)C(=O)N1 [Compound B8, (S)-N-((S)-2,6-Dioxyhesperidin-3-yl)-9-fluoro-1,2,3,4,4,4a,5-hexahydrobenzo[b]pyrazino[1,2-d][1,4]oxazine-8-carboxamide] | – |
| 0.4 | Cn1c(=O)n(C2CCC(=O)NC2=O)c2ccc3c(c21)OC[C@H]1CNCCN31 (stereo partly shown) [Compound D7] | – |
| 12.8 | O=C1CCC(Nc2ccc3c(c2)N2CCNC[C@@H]2CO3)C(=O)N1 (stereo partly drawn) [Compound C9, 3-(((R)-1,2,3,4,4a,5-Hexahydrobenzo[b]pyrazine[1,2-d][1,4]oxazine-9-yl)amino)piperidine-2,6-dione] | – |
| 0.65 | O=C1CCC(N2Cc3c(ccc4c3OCC43CCC4(CC3)CNC4)C2=O)C(=O)N1 (stereo not shown) [Compound D9, 3-(6''-oxo-6''-,8''-dihydro-2''-H,7''-H-dipyrazolo[azetidin-3,1'-cyclohexane-4'-, 3"-furan[2,3-e]isoindole]-7"-yl)piperidine-2,6-dione] | – |
| 45.1 | O=C1CC[C@H](NC(=O)c2cc3c(cc2F)N2CCNC[C@@H]2CO3)C(=O)N1 [Compound B3, (R)-N-((S)-2,6-dioxyhesperidin-3-yl)-9-fluoro-1,2,3,4,4,4a,5-hexahydrobenzo[b]pyrazino[1,2-d][1,4]oxazine-8-carboxamide] | – |
| 0.55 | Cn1c(=O)n(C2CCC(=O)NC2=O)c2ccc3c(c21)OC[C@H]1CNCCN31 (stereo in doubt) [Compound D6, 3-((R)-3-Methyl-2-oxo-2,3,5,5a,6,7,8,9-octahydro-1H-imidazo[4',5':5,6]benzo[1,2-b]pyrazino[1,2-d][1,4]oxazine-1-yl)piperidine-2,6-dione] | – |
